Source: patent US6777412B2 (priority 1990, dated 2004)

Experiments:
Type in all cases: in vivo
Pyricularia oryzae = details: 100 ppm active ingredient foliar spray plus root drench (approx. 40 ppm a.i. in dry soil), one or two days before inoculation
Septoria nodorum = test: Foliar fungal disease test on plants: Septoria nodorum (Sn); details: 100 ppm active ingredient foliar spray plus root drench (approx. 40 ppm a.i. in dry soil), one or two days before inoculation
Description: (§1) The compounds were tested against a variety of foliar fungal diseases of plants. The technique employed was as follows.
(§2) The plants were grown in John Innes Potting Compost (No.1 or 2) in 4 cm diameter minipots. The test compounds were formulated either by bead milling with aqueous Dispersol T or as a solution in acetone or acetone/ethanol which was diluted to the required concentration immediately before use. For the foliage diseases, the formulations (100 ppm active ingredient except where otherwise indicated) were sprayed onto the foliage and applied to the roots of the plants in the soil. The sprays were applied to maximum retention and the root drenches to a final concentration equivalent to approximately 40 ppm a.i. in dry soil. Tween 20, to give a final concentration of 0.05%, was added when the sprays were applied to cereals.
(§3) For most of the tests the compound was applied to the soil (roots) and to the foliage (by spraying) one or two days before the plant was inoculated with the disease. An exception was the test on Erysiphe graminis in which the plants were inoculated 24 hours before treatment. Foliar pathogens were applied by spray as spore suspensions onto the leaves of test plants. After inoculation, the plants were put into an appropriate environment to allow infection to proceed and then incubated until the disease was ready for assessment. The period between inoculation and assessment varied from four to fourteen days according to the disease and environment.
(§4) The disease control vas recorded by the following grading:
(§5) 3=trace-5% of disease on untreated plants
(§6) 2=6-25% of disease on untreated plants
(§7) 1=26-59% of disease on untreated plants
(§8) 0=60-100% of disease on untreated plants

[1] = test system: Erysiphe graminis tritici; test: Foliar fungal disease test on plants: Erysiphe graminis tritici (Egt); details: 100 ppm active ingredient foliar spray plus root drench (approx. 40 ppm a.i. in dry soil); plants inoculated 24 hours before treatment
Description: as §1, §2, §3, §4, §5, §6, §7, §8
Egt Erysiphe graminis tritici

Plasmopara viticola = test: Foliar fungal disease test on plants: Plasmopara viticola (Pv); details: 100 ppm active ingredient foliar spray plus root drench (approx. 40 ppm a.i. in dry soil), one or two days before inoculation
Description: as §1, §2, §3, §4, §5, §6, §7, §8

[2] = test system: Phytophthora infestans lycopersici; details: 100 ppm active ingredient foliar spray plus root drench (approx. 40 ppm a.i. in dry soil), one or two days before inoculation
Venturia inaequalis = test: Foliar fungal disease test on plants: Venturia inaequalis (Vi); details: 100 ppm active ingredient foliar spray plus root drench (approx. 40 ppm a.i. in dry soil), one or two days before inoculation
Description: as §1, §2, §3, §4, §5, §6, §7, §8

Puccinia recondita = test: Foliar fungal disease test on plants: Puccinia recondita (Pr); details: 100 ppm active ingredient foliar spray plus root drench (approx. 40 ppm a.i. in dry soil), one or two days before inoculation
Description: as §1, §2, §3, §4, §5, §6, §7, §8

Erysiphe graminis hordei = test: Foliar fungal disease test on plants: Erysiphe graminis hordei (Egh); details: 100 ppm active ingredient foliar spray plus root drench (approx. 40 ppm a.i. in dry soil); plants inoculated 24 hours before treatment
Description: as §1, §2, §3, §4, §5, §6, §7, §8
Egh Erysiphe graminis hordei

Row | Compound | disease control grading, Po (Pyricularia oryzae) (Pyricularia oryzae) | disease control grading, Sn (Septoria nodorum) (Septoria nodorum) | disease control grading, Egt (Erysiphe graminis tritici) [1] | disease control grading, Pv (Plasmopara viticola) (Plasmopara viticola) | disease control grading, Pil (Phytophthora infestans lycopersici) [2] | disease control grading, Vi (Venturia inaegualis) (Venturia inaequalis) | disease control grading, Pr (Puccinia recondita) (Puccinia recondita) | disease control grading, Egh (Erysiphe graminis hordei) (Erysiphe graminis hordei)
1 | CO/C=C(/C(=O)OC)c1ccccc1Oc1cc(OCc2ccncn2)ncn1 [250 of Table I] | 2 (2=6-25% of disease on untreated plants) | 4 (4=no disease) | 4 (4=no disease) | 4 (4=no disease) |  |  |  | 
2 | CO/C=C(/C(=O)OC)c1ccccc1Oc1cc(OC(c2ccccc2)C(F)(F)F)ncn1 (stereo not shown) [371 of Table I] | 4 (4=no disease) |  |  | 4 (4=no disease) | 0 (0=60-100% of disease on untreated plants) | 4 (4=no disease) | 4 (4=no disease) | 4 (4=no disease)
3 | CO/C=C(/C(=O)OC)c1ccccc1Oc1cc(OCCc2c(F)cccc2Cl)ncn1 [372 of Table I] | 4 (4=no disease) |  |  | 4 (4=no disease) | 4 (4=no disease) | 4 (4=no disease) | 4 (4=no disease) | 4 (4=no disease)
4 | CO/C=C(/C(=O)OC)c1ccccc1Oc1cc(OCCc2c(Cl)cccc2Cl)ncn1 [373 of Table I] | 4 (4=no disease) |  |  | 4 (4=no disease) | 3 (3=trace-5% of disease on untreated plants) | 4 (4=no disease) | 4 (4=no disease) | 4 (4=no disease)
5 | CO/C=C(/C(=O)OC)c1ccccc1Oc1cc(OCc2c(F)cccc2F)ncn1 [374 of Table I] | 4 (4=no disease) |  |  | 4 (4=no disease) | 4 (4=no disease) | 4 (4=no disease) | 4 (4=no disease) | 4 (4=no disease)
6 | CO/C=C(/C(=O)OC)c1ccccc1Oc1cc(Nc2ccccc2OC)ncn1 [380 of Table I] | 4 (4=no disease) |  |  | 4 (4=no disease) | 3 (3=trace-5% of disease on untreated plants) | 4 (4=no disease) | 4 (4=no disease) | 4 (4=no disease)
7 | CO/C=C(/C(=O)OC)c1ccccc1Oc1cc(OS(=O)(=O)c2ccccc2C#N)ncn1 [381 of Table I] | 2 (2=6-25% of disease on untreated plants) |  |  | 0 (0=60-100% of disease on untreated plants) | 0 (0=60-100% of disease on untreated plants) | 0 (0=60-100% of disease on untreated plants) | 2 (2=6-25% of disease on untreated plants) | 0 (0=60-100% of disease on untreated plants)
8 | CO/C=C(/C(=O)OC)c1ccccc1Oc1cc(OCCOc2c(F)cccc2F)ncn1 [382 of Table I] | 4 (4=no disease) |  |  | 4 (4=no disease) | 4 (4=no disease) | 4 (4=no disease) | 4 (4=no disease) | 4 (4=no disease)
